From patent US6391309B1, “Method of preparing and using isoflavones for the treatment of female symptoms” (Archer Daniesl Midland Company, priority 1996, dated 2002)

Columns and labels:
[1] = Solubility of isoflavones in distilled water at 37° C., HPLC after filtration; type: physicochemical; details: 0.02% in distilled water, 17 hours, 0.2 micron filter
Procedure: Separate solutions (0.02% in distilled water) were made for genistein, genistin, daidzein, daidzin and isoflavone concentrate in volumetric flasks. Samples were then placed in a 37° C. water bath for 17 hours, followed by rapid filtration through a 0.2 micron syringe-type filter to remove particulates. Filtered samples were then analyzed for isoflavone concentration by HPLC.

[2] = test system: LNCaP cells; assay: In vitro secretion of PSA by LNCaP cells into media; type: cell-based
Procedure: PSA concentrations were reduced 68% and 74% by 25 and 50 μM of genistein treatment respectively, and 31% and 42% by 25 and 50 μM of soy phytochemical concentrate treatment respectively.

Question: Which “Daidzin concentration in solution (solubility)” value [1] does the source give for `O=c1c(-c2ccc(O)cc2)coc2cc(O[C@@H]3O[C@H](CO)[C@@H](O)[C@H](O)[C@H]3O)ccc12` [daidzin] here?
Answer: Its value is 48.51 ppm.

Question: What does the source list for `O=c1c(-c2ccc(O)cc2)coc2cc(O)cc(O)c12` [genistein]?
Answer: PSA concentration reduced ([2]; 25 μM): 68%; PSA concentration reduced ([2]; 50 μM): 74%; Genistein concentration in solution (solubility) [1]: 7.42 ppm
